Where two headings read alike, the source gives them in different places.
Assays:
[1] = three individuals; 660 mg at first noticeable symptom, then 440 mg three times daily at six-hour intervals
Description: After completing treatment in Example 1, three of the individuals at risk for hemorrhoids were treated at the onset of hemorrhoid symptoms to determine whether naproxen could halt or reverse the progression of the hemorrhoid symptoms.

[2] = one individual; 220 mg every day

COc1ccc2cc([C@H](C)C(=O)O)ccc2c1 [naproxen sodium]
progression of emerging hemorrhoid symptoms [1]: symptoms did not worsen
time to complete disappearance of all symptoms of hemorrhoids from commencement of treatment [1]: 12 to 24 h
hemorrhoid symptoms after treatment, as reported by individuals (440 mg three times daily at six-hour intervals, the one remaining individual): significant improvement in symptoms
hemorrhoid symptoms after treatment, as reported by individuals (five individuals, 440 mg three times daily at six-hour intervals until symptoms abated, all treated individuals except one): complete lack of hemorrhoid symptoms after treatment
occurrence of emerging hemorrhoid symptoms under prophylaxis [2]: has not experienced any emerging hemorrhoid symptoms

From patent US20140350111A1, “METHODS FOR TREATMENT AND PROPHYLAXIS AGAINST HEMORRHOIDS” (priority 2011, published 2014)
